Converted amounts (≈) assume the structure as drawn.
Experiments:
[1] = test system: mouse T cellular lymphoma EL4; details: for Mice surviving on the 70th day: end of experiment day 70
Description: The in vivo experiments involved a model of mouse T cellular lymphoma EL4, the experimental animals were mice (males) of the B/6 species that were subcutaneously implanted with 10^5 tumor cells on day 0. The conjugates were applied intravenously in a dose of 1×15 mg/kg of DOX equivalent. This single application was carried out on the ninth day after the tumor cells transplantation, i.e. at a time when the tumor was palpable, about approx. 400 mm^3 in size.

[2] = test system: SW620 (human colorectal carcinoma); test: In vitro cytotoxicity, SW620 line; type: cell-based; details: SW-620, SW620 cells, repeated values per sample
Jurkat = test: In vitro cytotoxicity, Jurkat line; type: cell-based; details: Homo sapiens; Jurkat cells; repeated values per sample
cathepsine B = cathepsine B (Homo sapiens, UniProt P07858); test: Degradation of grafted conjugates by cathepsine B; type: in vitro ADME; details: cathepsine B 5.10^−7 mol/l, pH 6, 37° C., 24 hours
Description: The degradation experiments were carried in a phosphate buffer (0.1 M phosphate buffer containing 0.05 M NaCl, pH 6) in the presence of cathepsine B or glutathione in the role of degradation agents, i.e. in the environment modeling intracellular environment (cytoplasm, endosome and secondary lysosome). The grafted polymeric conjugates were dissolved in the phosphate buffer in concentration of 50 mg/ml and immediately before the solutions were placed in a thermostat (37° C.) a stock solution of cathepsine B or glutathione was added to the solutions so that the final concentration of these agents in the incubation medium was 5.10^−7 mol/l and 3.10^−3 mol/l for cathepsine and glutathione, respectively. In predetermined intervals aliquot parts (200 μl) were sampled from the incubation solutions. The samples were desalinated in the PD-10 columns and lyophilized. The molecular weight of the degradation products was measured using the Shimadzu SIL-HT liquid chromatograph fitted with a differential refractometer (Shimadzu RID-10A) and multiangle light dispersion detector (DAWN EOS, Wyatt Technology, USA). The analysis was carried out in a Superose™ 6 column (300×10 mm) (Amersham Bioscience). […] The molecular weight and polydispersity of the copolymer was calculated using the Astra software. […]

[3] = 1×15 mg/kg DOX equivalent i.v. on day 9

Row | Molecule | Anticancer effect [1, 3] | Mice surviving on the 70th day [1, 3] | Survival: day of animal death or LTS (individual mice) ([1]; B/6 mice, EL 4 10^5 cells s.c. day 0, one i.v. dose 15 mg/kg DOX equivalent on day 9) | IC50 [2] | IC50 (Jurkat) | Molecular weight of degradation products (cathepsine B) | Weight decrease as a sign of toxicity [1, 3]
1 | poly(HPMA-co-MA-AH-NHNH2-co-MA-AH-NHN=DOX-co-MA-AH-SS—)-graft-[(SS)-poly(HPMA-co-MA-AH-NHNH2-MA-AH-NHN=DOX)] [Conjugate 3a] | very significant anticancer effect | 100% | LTS |  |  |  | 
2 | COc1cccc2c1C(=O)c1c(O)c3c(c(O)c1C2=O)C[C@@](O)(C(=O)CO)C[C@@H]3O[C@H]1C[C@H](N)[C@H](O)[C@H](C)O1 [Dox, doxorubicin] |  |  |  | 0.003 µg/mL (≈ 0.00552 µM) | 0.119 µg/mL (≈ 0.219 µM) |  | 
3 | poly(HPMA-co-MA-AH-NHNH2-MA-AH-NHN=DOX-co-MA-GFLG-NH—)-graft-[(GFLG)-poly(HPMA-co-MA-AH-NHNH2-co-MA-AH-NHN=DOX)] [Conjugate 1d] | very significant anticancer effect | 88% |  |  |  | below the renal filtration limit | no weight decrease

— patent publication US8603990B2, “Grafted macromolecular conjugates of doxorubicin with anticancer activity and method of their preparation” (priority 2006, dated 2013)
